Source: US20220127297A1, “Novel Antibacterial 3"-Derivatives Of 4,6-Disubstituted 2,5-Dideoxystreptamine Aminoglycoside Antibiotics” (AGILeBiotics B.V., priority 2018, published 2022)
Converted amounts (≈) assume the structure as drawn.

Experiments:
Assay in all cases: MIC determination at Fidelta, clinical isolates
Format in all cases: cell-based
[1] = tested on: clinical isolates of Vancomycin-resistant Enterococcus faecium (VRE)
Method in brief: (§1)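 Clinical isolates and ATCC reference strains revived on MH agar, tested by broth microdilution in Mueller Hinton broth. Compounds from 5 mg/mL DMSO stocks, two-fold serial dilutions, final 64-0.125 μg/mL.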

[2] = tested on: clinical isolates of methicillin-resistant Staphylococcus aureus (MRSA)
Method in brief: as §1

[3] = tested on: clinical isolates of multidrug-resistant Acinetobacter baumannii (and ATCC17978)
Method in brief: as §1

[4] = tested on: clinical isolates of multidrug-resistant Pseudomonas aeruginosa (and ATCC27853)
Method in brief: as §1

[5] = AB-2017, Bronchial aspirate/CRAB
[6] = AB-2019, Bronchial aspirate/CRAB

| Structure (SMILES) | MIC90 ([1]; VRE-2005, Urine) | MIC90 ([1]; VRE-2006, Urine) | MIC90 ([1]; VRE-2007, Urine) | MIC90 ([1]; VRE-2008, Urine) | MIC90 ([1]; VRE-2009, Urine) | MIC90 ([1]; VRE-2010, Urine) | MIC90 ([1]; VRE-2011, Rectum) | MIC90 ([1]; VRE-2012, Rectum) | MIC90 ([1]; VRE-2013, Rectum) | MIC90 ([2]; MRSA-1995, Liquor) | MIC90 ([2]; MRSA-1998, Wound) | MIC90 ([2]; MRSA-1999, Skin) | MIC90 ([2]; MRSA-2003, Wound) | MIC90 ([3]; A. baumannii ATCC17978 strain) | MIC90 ([3]; AB-1931, Urine/CRAB) | MIC90 ([3]; AB-1932, Urine (catheter)/CRAB) | MIC90 [3, 5] | MIC90 ([3]; AB-2018, Skin/CRAB) | MIC90 [3, 6] | MIC90 ([4]; P. aeruginosa ATCC27853 strain) | further results |
| --- | --- | --- | --- | --- | --- | --- | --- | --- | --- | --- | --- | --- | --- | --- | --- | --- | --- | --- | --- | --- | --- |
| N=C(NC[C@@H]1CCNC1)NC1[C@@H](O)C(OC2[C@@H](F)[C@H](O[C@H]3OC(CN)[C@@H](O)CC3N)C(N)C[C@H]2NC(=O)[C@@H](O)CCN)O[C@H](CO)[C@H]1O (stereo partly drawn) [ABX5039, Tobra-AHB-F-Gua (R) pyrrolidine-3-ylmethyl] | 4 µg/mL (≈ 5.75 µM) | 16 µg/mL (≈ 23 µM) | 4 µg/mL (≈ 5.75 µM) | 4 µg/mL (≈ 5.75 µM) | 4 µg/mL (≈ 5.75 µM) | 8 µg/mL (≈ 11.5 µM) | 8 µg/mL (≈ 11.5 µM) | 4 µg/mL (≈ 5.75 µM) | 4 µg/mL (≈ 5.75 µM) | 0.5 µg/mL (≈ 0.719 µM) | 0.25 µg/mL (≈ 0.359 µM) | 0.25 µg/mL (≈ 0.359 µM) | 0.5 µg/mL (≈ 0.719 µM) | 0.5 µg/mL (≈ 0.719 µM) | 1 µg/mL (≈ 1.44 µM) | 1 µg/mL (≈ 1.44 µM) | 1 µg/mL (≈ 1.44 µM) | 1 µg/mL (≈ 1.44 µM) | 1 µg/mL (≈ 1.44 µM) | 0.5 µg/mL (≈ 0.719 µM) | MIC90 ([3]; AB-1964, Blood): 1 µg/mL (≈ 1.44 µM); MIC90 ([3]; AB-2025, Skin): 1 µg/mL (≈ 1.44 µM); MIC90 ([3]; AB-2026, Skin): 2 µg/mL (≈ 2.87 µM); MIC90 ([4]; PA-1948, Wound/OXA-2): 1 µg/mL (≈ 1.44 µM); MIC90 ([4]; PA-1949, Urine/OXA-2): 8 µg/mL (≈ 11.5 µM); MIC90 ([4]; PA-1950, Sputum/OXA-2): 1 µg/mL (≈ 1.44 µM); MIC90 ([4]; PA-1952, Wound/OXA-2): 4 µg/mL (≈ 5.75 µM); MIC90 ([4]; PA-1953, Urine/MDR): 32 µg/mL (≈ 46 µM); MIC90 ([4]; PA-1954, Sputum/OXA-2): 1 µg/mL (≈ 1.44 µM); MIC90 ([4]; PA-1967, Blood/VIM): 4 µg/mL (≈ 5.75 µM) |
| N=C(NCCN)NC1C(O)[C@@H](CO)OC(OC2C(F)[C@H](O[C@H]3OC(CN)[C@@H](O)CC3N)C(N)C[C@H]2NC(=O)[C@@H](O)CCN)[C@@H]1O (some centres unmarked) [ABX5020, Tobra-AHB-F-Gua-2-amino-ethyl] | – | – | – | – | – | – | – | – | – | – | – | – | – | 0.5 µg/mL (≈ 0.763 µM) | 1 µg/mL (≈ 1.53 µM) | 1 µg/mL (≈ 1.53 µM) | 1 µg/mL (≈ 1.53 µM) | 2 µg/mL (≈ 3.05 µM) | 2 µg/mL (≈ 3.05 µM) | 0.25 µg/mL (≈ 0.381 µM) | MIC90 ([4]; PA-1948, Wound/OXA-2): 1 µg/mL (≈ 1.53 µM); MIC90 ([4]; PA-1949, Urine/OXA-2): 8 µg/mL (≈ 12.2 µM); MIC90 ([4]; PA-1950, Sputum/OXA-2): 1 µg/mL (≈ 1.53 µM); MIC90 ([4]; PA-1952, Wound/OXA-2): 8 µg/mL (≈ 12.2 µM); MIC90 ([4]; PA-1953, Urine/MDR): 16 µg/mL (≈ 24.4 µM); MIC90 ([4]; PA-1954, Sputum/OXA-2): 0.5 µg/mL (≈ 0.763 µM) |
| N=C(NC[C@@H]1CCCN1)NC1[C@@H](O)C(OC2[C@@H](F)[C@H](O[C@H]3OC(CN)[C@@H](O)CC3N)C(N)C[C@H]2NC(=O)[C@@H](O)CCN)O[C@H](CO)[C@H]1O (stereo partly drawn) [ABX5026, Tobra-AHB-F-Gua (S) pyrrolidine-2-yl-methyl] | 4 µg/mL (≈ 5.75 µM) | 8 µg/mL (≈ 11.5 µM) | 4 µg/mL (≈ 5.75 µM) | 4 µg/mL (≈ 5.75 µM) | 8 µg/mL (≈ 11.5 µM) | 8 µg/mL (≈ 11.5 µM) | 8 µg/mL (≈ 11.5 µM) | 4 µg/mL (≈ 5.75 µM) | 4 µg/mL (≈ 5.75 µM) | 0.5 µg/mL (≈ 0.719 µM) | 0.25 µg/mL (≈ 0.359 µM) | 0.5 µg/mL (≈ 0.719 µM) | 0.5 µg/mL (≈ 0.719 µM) | 0.5 µg/mL (≈ 0.719 µM) | 1 µg/mL (≈ 1.44 µM) | 1 µg/mL (≈ 1.44 µM) | 1 µg/mL (≈ 1.44 µM) | 1 µg/mL (≈ 1.44 µM) | 1 µg/mL (≈ 1.44 µM) | 1 µg/mL (≈ 1.44 µM) | MIC90 ([3]; AB-1964, Blood): 2 µg/mL (≈ 2.87 µM); MIC90 ([3]; AB-2025, Skin): 1 µg/mL (≈ 1.44 µM); MIC90 ([3]; AB-2026, Skin): 2 µg/mL (≈ 2.87 µM); MIC90 ([4]; PA-1948, Wound/OXA-2): 1 µg/mL (≈ 1.44 µM); MIC90 ([4]; PA-1949, Urine/OXA-2): 16 µg/mL (≈ 23 µM); MIC90 ([4]; PA-1950, Sputum/OXA-2): 1 µg/mL (≈ 1.44 µM); MIC90 ([4]; PA-1952, Wound/OXA-2): 8 µg/mL (≈ 11.5 µM); MIC90 ([4]; PA-1953, Urine/MDR): 32 µg/mL (≈ 46 µM); MIC90 ([4]; PA-1954, Sputum/OXA-2): 1 µg/mL (≈ 1.44 µM); MIC90 ([4]; PA-1967, Blood/VIM): 8 µg/mL (≈ 11.5 µM) |
| N=C(N)NC1C(O)[C@@H](CO)OC(OC2C(F)[C@H](O[C@H]3OC(CN)[C@@H](O)CC3N)C(N)C[C@H]2NC(=O)[C@@H](O)CCN)[C@@H]1O (some centres unmarked) [ABX5006, Tobra-AHB-F-Gua] | 4 µg/mL (≈ 6.53 µM) | 32 µg/mL (≈ 52.2 µM) | 4 µg/mL (≈ 6.53 µM) | 8 µg/mL (≈ 13.1 µM) | 16 µg/mL (≈ 26.1 µM) | 8 µg/mL (≈ 13.1 µM) | 16 µg/mL (≈ 26.1 µM) | 4 µg/mL (≈ 6.53 µM) | 4 µg/mL (≈ 6.53 µM) | 0.5 µg/mL (≈ 0.816 µM) | 0.25 µg/mL (≈ 0.408 µM) | 0.5 µg/mL (≈ 0.816 µM) | 0.5 µg/mL (≈ 0.816 µM) | <0.125 µg/mL | 0.5 µg/mL (≈ 0.816 µM) | 1 µg/mL (≈ 1.63 µM) | 0.5 µg/mL (≈ 0.816 µM) | 1 µg/mL (≈ 1.63 µM) | 1 µg/mL (≈ 1.63 µM) | 0.25 µg/mL (≈ 0.408 µM) | MIC90 ([3]; AB-1964, Blood): 1 µg/mL (≈ 1.63 µM); MIC90 ([3]; AB-2025, Skin): 0.5 µg/mL (≈ 0.816 µM); MIC90 ([3]; AB-2026, Skin): 1 µg/mL (≈ 1.63 µM); MIC90 ([4]; PA-1948, Wound/OXA-2): 0.5 µg/mL (≈ 0.816 µM); MIC90 ([4]; PA-1949, Urine/OXA-2): 8 µg/mL (≈ 13.1 µM); MIC90 ([4]; PA-1950, Sputum/OXA-2): 1 µg/mL (≈ 1.63 µM); MIC90 ([4]; PA-1952, Wound/OXA-2): 4 µg/mL (≈ 6.53 µM); MIC90 ([4]; PA-1953, Urine/MDR): 8 µg/mL (≈ 13.1 µM); MIC90 ([4]; PA-1954, Sputum/OXA-2): 0.5 µg/mL (≈ 0.816 µM); MIC90 ([4]; PA-1967, Blood/VIM): 4 µg/mL (≈ 6.53 µM) |
| NCC[C@H](O)C(=O)N[C@@H]1C[C@H](N)[C@@H](O[C@H]2O[C@H](CN)[C@@H](O)[C@H](O)[C@H]2O)[C@H](O)[C@H]1O[C@H]1O[C@H](CO)[C@@H](O)[C@H](N)[C@H]1O [Amikacin, amikacin, reference compound] | > 64 µg/mL | > 64 µg/mL | > 64 µg/mL | > 54 µg/mL | > 64 µg/mL | > 64 µg/mL | > 64 µg/mL | > 64 µg/mL | > 64 µg/mL | 4 µg/mL (≈ 6.83 µM) | 4 µg/mL (≈ 6.83 µM) | 8 µg/mL (≈ 13.7 µM) | 4 µg/mL (≈ 6.83 µM) | – | – | – | – | – | – | – | – |
